Source: US10421971B2, “Anti-tumor therapy” (The University of Chicago, priority 2014, dated 2019)

Experiments:
MC38 tumors = assay: MC38 tumor growth after local radiation in mice; assay type: in vivo, mouse; conditions: 20 Gy, 10 μg intratumorally on day 2 and 6 after radiation, FIG. 21A, 21B
Procedure: (§1) 1×10^6 MC38 tumor cells were subcutaneously injected into the flank of mice. Tumor volumes were measured along three orthogonal axes (a, b, and c) and calculated as tumor volume=abc/2. Tumors were allowed to grow for 9-10 days and treated by local radiation (Deng et al., 2014). Briefly, the body was protected with a lead cover and the tumor was exposed, allowing local radiation. Tumors were irradiated using RS-2000 Biological Irradiator (RAD SOURCE) at the dose of 20 Gy with 160 kV and 25 mA. For type I IFN blockade experiments, 200 μg anti-IFAR1 mAb was intratumorally injected on day 0 and 2 after radiation. For HMGB-1 blockade experiments, 200 μg anti-HMGB-1 mAb (clone 3B1, generated by inventors) was administered i.p. on day 0 and 3 after radiation. For CD8^+ T cell depletion experiments, […] anti-CD8 mAb (Clone 2.43, BioXCell) was delivered 5 times by i.p. injection every three days starting one day before radiation. For exogenous IFN-β treatment experiments, 1×10^10 viral particles of Ad-IFN-β (Burnette, B., et al., The Efficacy of Radiotherapy Relies upon Induction of Type I Interferon-Dependent Innate and Adaptive Immunity, Cancer Res Apr. 1, 2011 71; 2488; (doi: 10.1158/0008-5472.CAN-10-2820)) were intratumorally administered on day 2 after radiation. Ad-null was used as negative control. […]

[1] = test system: tumor-specific CD8+ T cells; assay: ELISPOT of tumor-specific IFN-γ-secreting CD8+ T cells from tumor draining lymph nodes after radiation; assay type: in vivo, mouse
Procedure: as §1

BMDCs = assay: BMDC cross-priming of 2C CD8+ T cells after stimulation with irradiated MC38-SIY tumor cells (IFN-γ ELISPOT); assay type: cell-based, mouse
Procedure: Single-cell suspensions of bone marrow cells were obtained from C57BL/6J, STING^−/− and IRF3^−/− mice. Bone marrow from cGAS^−/− mice was kindly provided by Dr. Zhijian J. Chen of University of Texas Southwestern Medical Center, Dallas. The cells were placed in 10 cm petri dish and cultured in RPMI-1640 medium containing 10% fetal bovine serum (DENVILLE), supplemented with 20 ng/ml GM-CSF. Fresh media with GM-CSF was added into culture on day 3. BMDCs (bone marrow-derived dendritic cells) were harvest for stimulation assay on day 7. 8×10^6 MC38-SIY^hi cells were plated into 10 cm cell culture dishes overnight, and then pretreated with 40 Gy and incubated for 5 hours. BMDCs were added and co-cultured with MC38-SIY^hi cells at the ratio of 1:1 in the presence of fresh GM-CSF for additional 8 hours. Subsequently purified CD11c cells with EasySep™ Mouse CD11c Positive Selection Kit II (STEMCELL) were incubated with isolated CD8^+ T cells from naive 2 C mice for three days. For the bypassing assay, 10 ng/ml murine IFN-β was added in the co-culture of BMDCs and tumor cells, or 100 μg/ml DMXAA was added into isolated CD11c^+ cells with additional 3 h incubation. For IFN-β detection, BMDCs were co-cultured with tumor cells at the ratio of 1:1 for additional 8 hours, and 1×10^6 cells/ml purified CD11c^+ cells were seed into 96-well plates for 48 hours.
For bone-marrow CD11c^+ cells functional assay, 2×10^4 purified CD11c^+ cells with were incubated with isolated CD8^+ T cells from naive 2 C mice with EasySep™ Mouse CD8a Positive Selection Kit (STEMCELL) for three days at the ratio of 1:10. For tumor-specific CD8^+ T cells functional assay, eight days after radiation, tumor DLNs were removed and CD8^+ T cells were purified. MC38 tumor cells were exposed to 20 ng/ml murine IFN-γ for 24 hr prior to plating with purified CD8^+ T. 2×10^5 CD8^+ T cells were incubated with MC38 at the ratio of 10:1 for 48 hours. 96-well HTS-IP plate (Millipore) was pre-coated with 2.5 μg/ml anti-IFN-γ antibody (clone R4-6A2, BD Pharmingen) overnight at 4° C. […]

IFNβ promoter = IFNβ promoter dual-luciferase reporter assay (IFNβ-Luc / pRL-SV40) in HEK293 cells; assay type: cell-based, human; conditions: versus shNT, FIG. 6A
Description: To measure IFNβ promoter activity, HEK293 cells were transiently co-transfected using Fugene (Roche) with pGL3-Ifnβ-Luc (Lin R, Genin P, Mamane Y, & Hiscott J (2000) Selective DNA binding and association with the CREB binding protein coactivator contribute to differential activation of alpha/beta interferon genes by interferon regulatory factors 3 and 7. Molecular and cellular biology 20(17):6342-6353) and an expression plasmid carrying the Renilla luciferase gene driven by the SV40 promoter (Promega). […] The following day, cells were irradiated at indicated dose and collected at indicated time in passive lysis buffer (Promega). Firefly and Renilla luciferase activities were measured using a dual-luciferase assay system (Promega). For siRNAs experiments, siRNA against LGP2 (see above) or non-targeting (Dharmacon) were transfected with RNAimax 24 h prior to transfection of luciferase/Renilla plasmids. Mean luciferase values were normalized and quantified from duplicate runs for each of at least three separate experiments.
We next assessed the role of LGP2 in regulating the IR-induced IFNβ response. HEK293 cells were transduced with lentiviral shRNA to stably reduce the levels of LGP2 or control non-targeting (shNT). Stably transduced cells were co-transfected with IFNβ-Luc and pRL-SV40, mock-treated or exposed to 6 or 12 Gy and collected 72 hrs after IR.

## Nc1nc2c(ncn2[C@@H]2O[C@@H]3COP(=O)(O)O[C@H]4[C@@H](O)[C@H](n5cnc6c(N)ncnc65)O[C@@H]4COP(=O)(O)O[C@@H]2[C@@H]3O)c(=O)[nH]1 [2′3′-cGAMP, cyclic [G(2′,5′)pA(3′,5′)p]]
MC38 tumors; STING−/− mice
  synergy with radiation on tumor burden: abrogated
MC38 tumors; WT mice, versus either treatment alone
  tumor burden, combination with radiation: effectively reduce tumor burden
[1]; STING−/− host, FIG. 21D
  antitumor CD8+ T cell response induced by the combination with radiation: dampened
[1]; WT mice, 10 μg intratumorally on day 2 after 20 Gy, DLNs day 8, versus radiation or 2′3′-cGAMP alone, FIG. 21C
  number of tumor-specific IFN-γ-producing CD8+ T cells in DLNs, combination with radiation: significantly increased

## Cc1ccc2c(=O)c3cccc(CC(=O)O)c3oc2c1C [DMXAA]
BMDCs; STING−/− BMDCs stimulated with irradiated tumor cells, 10 ng/ml IFN-β or 100 μg/ml DMXAA, FIG. 18C
  function of STING−/− BMDCs (cross-priming of CD8+ T cells): fails to rescue
BMDCs; cGAS−/− BMDCs stimulated with irradiated tumor cells, 10 ng/ml IFN-β or 100 μg/ml DMXAA, FIG. 19D
  function of cGAS−/− BMDCs (cross-priming of CD8+ T cells): restored

## LGP2 shRNA: lentiviral pLKO.1 shRNA against LGP2, SEQ ID NO:3 ATTCTTGCGGTCATCGAACAG, Thermo Scientific
IFNβ promoter; HEK293, 6 or 12 Gy, 72 hrs after IR
  IR-induced IFNβ reporter activity: greatly increased
IFNβ promoter; HEK293, mock-treated
  IFNβ reporter activity: significant increase

## siRNA-cGAS: Mission siRNA against murine cGAS, 5′-GAGGAAAUCCGCUGAGUCAdTdT-3′ (SEQ ID NO:8), Sigma (GAGGAAAUCCGCUGAGUCADTDT; dTdT 3' overhang, further chemistry not given here)
BMDCs; BMDCs transfected with 50 nM siRNA, versus non-target control, stimulated with irradiated tumor cells, FIG. 19B
  function of DCs (cross-priming of CD8+ T cells): greatly diminished
